Key:
Jurkat T cells = experiment: SDF-1α induced migration of parental Jurkat T cells; format: cell-based, human
Method: Jurkat T cells and Jurkat-D3B cells were induced to migrate in response to 100ng/ml SDF-1α (R&D systems; the concentration of SDF-1α which induced maximal cell migration in both lines). The BSCI BN83250 was then added at various concentrations between 0nM and 1000nM (each in triplicate) to both the upper and lower compartments (at the same concentration in each compartment, so as not to create a gradient of BSCI concentration). DMSO (1% final concentration) was used as the vehicle, and was present in all wells at equal concentration.

TNF-alpha = experiment: Sub-lethal endotoxemia model (LPS challenge, serum TNF-alpha); format: in vivo, mouse; settings: BN83250 subcutaneous, valerolactam oral gavage
Method: We selected the sub-lethal endotoxemia model in mouse, because this has been well characterised in our laboratory (see for example Fox et al. (2002) J. Med. Chem. 45:360-70; Fox et al. (2005) J. Med. Chem. 48:867-74). The extent of systemic inflammation in response to a single intraperitoneal injection of bacterial lipopolysaccharide (LPS) can be estimated by measuring serum TNF-alpha 2 hours post challenge.
Methods: Mice (CD1 strain; adult males; 6 per group) were treated with BSCI (in an appropriate vehicle) or with vehicle alone by an appropriate route. […] Simultaneously, one set of mice at each BSCI concentration received BIM 23627 at 4mg/animal (120mg/kg) by sub-cutaneous injection (a treatment condition known to suppress classical sstr2-mediated signalling, such as GH release, in rats; Tulipano et al. (2002) 143:1218-24). Between 30mins and 1hour after dosing (a period when a maximal plasma concentration of BSCI has been achieved), the inflammatory challenge was elicited by intraperitoneal injection of 750µg of LPS (Sigma; L4130 lot#024K4077; 900,000 EU/mg).
After a further 2 hours, the animals were sacrificed by CO2 asphyxiation, and blood was drawn by cardiac puncture. Serum was prepared by conventional methods, and the level of TNF-alpha in serum was measured using an ELISA (R&D Systems; Murine Quantikine code# MTA00) performed in accordance with the manufacturer's instructions.

fetal rat pituicytes = experiment: Rat pituicyte GH suppression assay; format: cell-based; settings: Rattus norvegicus; for Emax: Table 3, percentage suppression compared to vehicle, read-out: Rat pituicyte GH suppression assay Max effect (%); for EC50: Table 3, read-out: Rat pituicyte GH suppression assay ED50
Text: Two different assays for "classical" sstr2 functions were adopted: (1) cultured foetal rat pituitary cells secreted growth hormone which is inhibited by sstr2 agonists in a dose-dependent fashion and (2) selected glucose-sensitive sub-clones of the human Panc-1 cell line secrete insulin which is inhibited by sstr2 agonists in a dose-dependent fashion.
Methods: Cultures of fetal rat pituicytes were established exactly as previously described (Murray et al. (2004) J. Clin. Endocrinol. Metab. 89:3027-32) by enzymatic dispersion. After 48hrs in low glucose DMEM plus 10% FCS, cells in 48 well plates (5 x 10^4 cells per well) were washed for 4hrs in serum-free DMEM and then incubated with test agents at various concentrations for a further 24hrs in serum-free DMEM. At the end of this period, the conditioned medium was harvested, any cell debris removed by centrifugation and assayed for GH using a commercially available ELISA (Linco; cat# EZRMGH-45K) in accordance with the manufacturer's instructions.
Results were reported as the mean ± SD, expressed as the fold change from cells in the presence of vehicle only.

SMILES | effect on SDF-1α induced migration of parental Jurkat T cell line (in words) (Jurkat T cells) | inhibition of LPS-induced TNF-alpha production (in words) (TNF-alpha) | Emax (fetal rat pituicytes) | EC50 (fetal rat pituicytes)
CCCCCCCCCCC(C)(C)C(=O)N[C@H]1CCCCNC1=O [BN83250, (S)-3-(2',2'-dimethyldodecanoyl)amino-caprolactam] | little or no effect | dramatically inhibited | 63% | 320 nM
CC(C)(C)C(=O)N[C@H]1CCCNC1=O [Valerolactam, (S)-3-(2'2'-dimethylpropionoylamino)-tetrahydropyridin-2-one] |  | dramatically inhibited | 61% | 80 nM

From EP2401611B1, “IMPROVED METHODS FOR IDENTIFICATION” (Cambridge Enterprise Limited, priority 2009, dated 2010)
